The source of these data is US11180462B2, “Microbiocidal oxadiazole derivatives” (SYNGENTA PARTICIPATIONS AG, priority 2015, dated 2021).

Bounds are passed on as bounds.

This assay relates to Glomerella lagenarium (Colletotrichum lagenarium). Kind of assay: Fungicidal activity against Glomerella lagenarium (Colletotrichum lagenarium) liquid culture / cucumber / preventative (anthracnose). To be noted: Colletotrichum orbiculare; 20 ppm in the applied formulation; liquid culture (PDB), growth inhibition measured photometrically after 3 to 4 days; compared to untreated control; read-out: disease control. It counts as cell-based. The procedure, abridged: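 Percent activity against the untreated check was derived from photometric growth measurements made 2 to 7 days after conidia in potato dextrose broth were combined with compound at 20 ppm. Cultures were kept dark at 24 °C and 96% humidity.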

Regarding `O=C(Cc1ccccc1)N(Cc1ccc(-c2noc(C(F)(F)F)n2)cc1)CC1CC1` [Compound 1.228, N-(cyclopropylmethyl)-2-phenyl-N-[[4-[5-(trifluoromethyl)-1,2,4-oxadiazol-3-yl]phenyl]methyl]-acetamide], the inhibition of growth at 20 ppm is at least 80%.

Turning to `N#Cc1ccc(CC(=O)N(Cc2ccc(-c3noc(C(F)(F)F)n3)cc2)CC2CC2)cc1` [Compound 1.236, 2-(4-cyanophenyl)-N-(cyclopropylmethyl)-N-[[4-[5-(trifluoromethyl)-1,2,4-oxadiazol-3-yl]phenyl]methyl]-acetamide], the inhibition of growth at 20 ppm was at least 80%.

As for `O=C(C1OCCO1)N(Cc1ccc(-c2noc(C(F)(F)F)n2)cc1)OCC=C(Cl)Cl` [Compound 1.547], the inhibition of growth at 20 ppm was at least 80%.

Consider `CCCCON(Cc1ccc(-c2noc(C(F)(F)F)n2)cc1)C(=O)C1CC1` [Compound 1.601, N-butoxy-N-[[4-[5-(trifluoromethyl)-1,2,4-oxadiazol-3-yl]phenyl]methyl]-cyclopropane-carboxamide], for which the inhibition of growth at 20 ppm is at least 80%.

On to `CON(Cc1ccc(-c2noc(C(F)(F)F)n2)cc1)C(=O)OCC(C)C` [Compound 2.8, isobutyl N-methoxy-N-[[4-[5-(trifluoromethyl)-1,2,4-oxadiazol-3-yl]phenyl]methyl]-carbamate], for which the inhibition of growth at 20 ppm was at least 80%.

For the molecule `COCCCC(=O)N(Cc1ccc(-c2noc(C(F)(F)F)n2)cc1)OCc1ccc(Cl)cc1` [Compound 1.555, N-[(4-chlorophenyl)-methoxy]-4-methoxy-N-[[4-[5-(trifluoromethyl)-1,2,4-oxadiazol-3-yl]phenyl]methyl]-butanamide], the inhibition of growth at 20 ppm is at least 80%.

With `CCCCON(Cc1ccc(-c2noc(C(F)(F)F)n2)cc1)C(=O)CC` [Compound 1.588, N-butoxy-N-[[4-[5-(trifluoromethyl)-1,2,4-oxadiazol-3-yl]phenyl]methyl]-propanamide], the inhibition of growth at 20 ppm was at least 80%.

For the molecule `CON(C(=O)C1(F)CC1)C(C)c1ccc(-c2noc(C(F)(F)F)n2)cc1` (centres unmarked) [Compound 1.271, 1-fluoro-N-methoxy-N-[1-[4-[5-(trifluoromethyl)-1,2,4-oxadiazol-3-yl]phenyl]ethyl]-cyclopropane-carboxamide], the inhibition of growth at 20 ppm was at least 80%.

`CON(C(=O)C1CC1C)C(C)c1ccc(-c2noc(C(F)(F)F)n2)cc1` (centres unmarked) [Compound 1.265, N-methoxy-2-methyl-N-[1-[4-[5-(trifluoromethyl)-1,2,4-oxadiazol-3-yl]phenyl]ethyl]-cyclopropane-carboxamide]: the inhibition of growth at 20 ppm is at least 80%.

For the molecule `CON(Cc1ccc(-c2noc(C(F)(F)F)n2)cc1)C(=O)OCC(C)(C)C` [Compound 2.18, 2,2-dimethylpropyl N-methoxy-N-[[4-[5-(trifluoromethyl)-1,2,4-oxadiazol-3-yl]phenyl]methyl]-carbamate], the inhibition of growth at 20 ppm is at least 80%.

With `CON(Cc1ccc(-c2noc(C(F)(F)F)n2)cc1)C(=O)c1cc2c(cc1Br)OCO2` [Compound 1.55, 6-bromo-N-methoxy-N-[[4-[5-(trifluoromethyl)-1,2,4-oxadiazol-3-yl]phenyl]methyl]-1,3-benzoxlioxole-5-carboxamide], the inhibition of growth at 20 ppm was at least 80%.

Consider `COc1cccc(C2(C(=O)N(Cc3ccc(-c4noc(C(F)(F)F)n4)cc3)OC)CC2)c1` [Compound 1.72, N-methoxy-1-(3-methoxyphenyl)-N-[[4-[5-(trifluoromethyl)-1,2,4-oxadiazol-3-yl]phenyl]methyl]-cyclopropane-carboxamide], for which the inhibition of growth at 20 ppm was at least 80%.

Turning to `CCC1(C(=O)N(Cc2ccc(-c3noc(C(F)(F)F)n3)cc2)OC)C(C)C1(Cl)Cl` (centres unmarked) [Compound 1.61, 2,2-dichloro-1-ethyl-N-methoxy-3-methyl-N-[[4-[5-(trifluoromethyl)-1,2,4-oxadiazol-3-yl]phenyl]methyl]-cyclopropane-carboxamide], the inhibition of growth at 20 ppm was at least 80%.

As to `O=C(CCC(F)(F)F)N(Cc1ccc(-c2noc(C(F)(F)F)n2)cc1)CC1CC1` [Compound 1.213, N-(cyclopropylmethyl)-4,4,4-trifluoro-N-[[4-[5-(trifluoromethyl)-1,2,4-oxadiazol-3-yl]phenyl]methyl]-butanamide], the inhibition of growth at 20 ppm is at least 80%.

In the case of `CC1(C)CC1C(=O)N(Cc1ccc(-c2noc(C(F)(F)F)n2)cc1)CC1CC1` (centres unmarked) [Compound 1.231, N-(cyclopropylmethyl)-2,2-dimethyl-N-[[4-[5-(trifluoromethyl)-1,2,4-oxadiazol-3-yl]phenyl]methyl]-cyclopropane-carboxamide], the inhibition of growth at 20 ppm was at least 80%.

For the molecule `C#CCC(NS(=O)(=O)CC)C(=O)N(Cc1ccc(-c2noc(C(F)(F)F)n2)cc1)CC1CC1` (centres unmarked) [Compound 1.239, N-(cyclopropylmethyl)-2-(ethylsulfonylamino)-N-[[4-[5-(trifluoromethyl)-1,2,4-oxadiazol-3-yl]phenyl]methyl]-pent-4-ynamide], the inhibition of growth at 20 ppm was at least 80%.

As for `COc1ccccc1C(=O)N(Cc1ccc(-c2noc(C(F)(F)F)n2)cc1)OC` [Compound 1.7, N,2-dimethoxy-N-[[4-[5-(trifluoromethyl)-1,2,4-oxadiazol-3-yl]phenyl]methyl]-benzamide], the inhibition of growth at 20 ppm was at least 80%.

For `CCC(=O)N(Cc1ccc(-c2noc(C(F)(F)F)n2)cc1)OCC=C(Cl)Cl` [Compound 1.534, N-(3,3-dichloroallyloxy)-N-[[4-[5-(trifluoromethyl)-1,2,4-oxadiazol-3-yl]phenyl]methyl]-propanamide], the inhibition of growth at 20 ppm is at least 80%.

For the molecule `CCC(C)C(=O)N(Cc1ccc(-c2noc(C(F)(F)F)n2)cc1)C(C)CC` (centres unmarked) [Compound 1.394, 2-methyl-N-sec-butyl-N-[[4-[5-(trifluoromethyl)-1,2,4-oxadiazol-3-yl]phenyl]methyl]-butanamide], the inhibition of growth at 20 ppm was at least 80%.

In the case of `CCCON(Cc1ccc(-c2noc(C(F)(F)F)n2)cc1)C(=O)CCC` [Compound 1.288, N-propoxy-N-[[4-[5-(trifluoromethyl)-1,2,4-oxadiazol-3-yl]phenyl]methyl]-butanamide], the inhibition of growth at 20 ppm is at least 80%.

For the molecule `CC1(C(=O)N(Cc2ccc(-c3noc(C(F)(F)F)n3)cc2)OCC=C(Cl)Cl)COC1` [Compound 1.544, N-(3,3-dichloroallyloxy)-3-methyl-N-[[4-[5-(trifluoromethyl)-1,2,4-oxadiazol-3-yl]phenyl]methyl]-oxetane-3-carboxamide], the inhibition of growth at 20 ppm is at least 80%.

For the molecule `CC(=O)C=CC(=O)N(Cc1ccc(-c2noc(C(F)(F)F)n2)cc1)CC1CCCO1` (centres unmarked) [Compound 1.439, 4-oxo-N-(tetrahydrofuran-2-ylmethyl)-N-[[4-[5-(trifluoromethyl)-1,2,4-oxadiazol-3-yl]phenyl]methyl]-pent-2-enamide], the inhibition of growth at 20 ppm was at least 80%.

For `CON(Cc1ccc(-c2noc(C(F)(F)F)n2)cc1)C(=O)n1ccnc1` [Compound 1.811, N-methoxy-N-[[4-[5-(trifluoromethyl)-1,2,4-oxadiazol-3-yl]phenyl]methyl]-imidazole-1-carboxamide], the inhibition of growth at 20 ppm was at least 80%.

Turning to `CCCON(Cc1ccc(-c2noc(C(F)(F)F)n2)cc1)C(=O)C1CC1` [Compound 1.319, N-propoxy-N-[[4-[5-(trifluoromethyl)-1,2,4-oxadiazol-3-yl]phenyl]methyl]-cyclopropane-carboxamide], the inhibition of growth at 20 ppm is at least 80%.

As for `C#CCN(Cc1ccc(-c2noc(C(F)(F)F)n2)cc1)C(=O)Cc1ccccc1Cl` [Compound 1.163, 2-(2-chlorophenyl)-N-prop-2-ynyl-N-[[4-[5-(trifluoromethyl)-1,2,4-oxadiazol-3-yl]phenyl]methyl]-acetamide], the inhibition of growth at 20 ppm is at least 80%.

For `CCCON(Cc1ccc(-c2noc(C(F)(F)F)n2)cc1)C(=O)C1CCC1` [Compound 1.295, N-propoxy-N-[[4-[5-(trifluoromethyl)-1,2,4-oxadiazol-3-yl]phenyl]methyl]-cyclobutane-carboxamide], the inhibition of growth at 20 ppm was at least 80%.

As for `CCCON(Cc1ccc(-c2noc(C(F)(F)F)n2)cc1)C(=O)CC(C)C` [Compound 1.294, 3-methyl-N-propoxy-N-[[4-[5-(trifluoromethyl)-1,2,4-oxadiazol-3-yl]phenyl]methyl]-butanamide], the inhibition of growth at 20 ppm is at least 80%.

With `CC1(C(=O)N(Cc2ccc(-c3noc(C(F)(F)F)n3)cc2)C2CC2)CCCCC1` [Compound 1.108, N-cyclopropyl-1-methyl-N-[[4-[5-(trifluoromethyl)-1,2,4-oxadiazol-3-yl]phenyl]methyl]-cyclohexane-carboxamide], the inhibition of growth at 20 ppm was at least 80%.

With `CON(Cc1ccc(-c2noc(C(F)(F)F)n2)cc1)C(=O)OC(Cl)C(C)C` (centres unmarked) [Compound 2.19, (1-chloro-2-methyl-propyl) N-methoxy-N-[[4-[5-(trifluoromethyl)-1,2,4-oxadiazol-3-yl]phenyl]methyl]-carbamate], the inhibition of growth at 20 ppm was at least 80%.

`O=C(C1CCCO1)N(Cc1ccc(-c2noc(C(F)(F)F)n2)cc1)OCc1ccc(Cl)cc1` (centres unmarked) [Compound 1.557, N-[(4-chlorophenyl)-methoxy]-N-[[4-[5-(trifluoromethyl)-1,2,4-oxadiazol-3-yl]phenyl]methyl]-tetrahydrofuran-2-carboxamide]: the inhibition of growth at 20 ppm is at least 80%.

Take `CC(C)C(=O)N(Cc1ccc(-c2noc(C(F)(F)F)n2)cc1)OCC=C(Cl)Cl` [Compound 1.539, N-(3,3-dichloroallyloxy)-2-methyl-N-[[4-[5-(trifluoromethyl)-1,2,4-oxadiazol-3-yl]phenyl]methyl]-propanamide]: the inhibition of growth at 20 ppm is at least 80%.

With `CCCCON(Cc1ccc(-c2noc(C(F)(F)F)n2)cc1)C(=O)CC1CC1` [Compound 1.650, N-butoxy-2-cydopropyl-N-[[4-[5-(trifluoromethyl)-1,2,4-oxadiazol-3-yl]phenyl]methyl]-acetamide], the inhibition of growth at 20 ppm is at least 80%.
